Assay results taken from DBAASP.
Values after ≈ are worked out from the molar mass of the structure shown. Each block holds one compound with its values, some of them ahead of it.

Columns and labels:
Assay in all cases: ≥ marks a high value that may be exact or a test limit, other limits are often not marked, values filed in µg/mL are converted to µM
[1] = system: Bacillus subtilis ATCC 6633
[2] = system: Escherichia coli DH5alpha
[3] = system: Micrococcus luteus DSM 1790
[4] = system: Kocuria rhizophila DSM 348
[5] = system: Escherichia coli DSM 1103
[6] = system: Staphylococcus aureus DSM 1104
[7] = system: Cryptococcus neoformans ATCC 2517
[8] = system: Candida glabrata ATCC 90030
[9] = system: Bacillus subtilis ATCC 6051
[10] = system: Escherichia coli ATCC 25922
[11] = system: Staphylococcus aureus ATCC 25923
[12] = system: Aspergillus flavus ATCC 24109
[13] = system: Saccharomyces cerevisiae PTCC 5052
[14] = system: Microsporum canis PTCC 5069
[15] = system: Candida albicans ATCC 10231
[16] = system: Enterococcus faecalis ATCC 29212
[17] = system: Candida krusei ATCC 28870
[18] = system: Trichophyton mentagrophytes ATCC 32510
[19] = system: Aspergillus niger ATCC 9142
[20] = system: Pseudomonas aeruginosa ATCC 27853
[21] = system: Aspergillus fumigatus ATCC 1022
Streptococcus sanguinis = system: Streptococcus sanguinis
Staphylococcus aureus = system: Staphylococcus aureus
[22] = system: Bacillus megaterium CIP 51.17
[23] = system: Escherichia coli CIP 54.8T
[24] = system: Staphylococcus saprophyticus
[25] = system: Bacillus subtilis CCT 2471
[26] = system: Staphylococcus epidermidis
[27] = system: Staphylococcus aureus ATCC 6538
[28] = system: Enterobacter cloacae ATCC 23355
[29] = system: Escherichia coli CCT 1371
[30] = system: Escherichia coli ATCC 11775
[31] = system: Staphylococcus aureus ATCC 12600
[32] = system: Candida albicans ATCC 14053
[33] = system: Micrococcus luteus ATCC 49732
[34] = system: Aspergillus flavus PFCC 100
[35] = system: Aspergillus fumigatus Af293
[36] = system: Aspergillus niger ATCC 9029
Candida krusei DSM 70079 = system: Candida krusei DSM 70079
Enterococcus faecalis = system: Enterococcus faecalis
[37] = system: Staphylococcus aureus SAP 0017
[38] = system: Salmonella typhimurium C610
Escherichia coli O111:B4 = system: Escherichia coli O111:B4
[39] = system: Staphylococcus aureus K147
[40] = system: Pseudomonas aeruginosa H103
Bacillus subtilis = system: Bacillus subtilis

SMILES: CC(C)C[C@H](NC(=O)[C@H](C)NC(=O)[C@H](CCCCN)NC(=O)[C@H](CC(C)C)NC(=O)[C@H](C)NC(=O)[C@H](CC(C)C)NC(=O)[C@H](CCCCN)NC(=O)[C@H](CC(C)C)NC(=O)[C@H](C)NC(=O)[C@H](CC(C)C)NC(=O)[C@@H](N)CCCCN)C(=O)N[C@@H](CCCCN)C(=O)N[C@@H](C)C(=O)N[C@@H](C)C(=O)N[C@@H](CC(C)C)C(=O)N[C@@H](CCCCN)C(=O)N[C@@H](CC(C)C)C(=O)N[C@@H](C)C(=O)O [KLALKLALKALKAALKLA]
MIC [1]: ≥ 68.2 µM
MIC [2]: ≥ 68.2 µM
MIC [3]: ≥ 68.2 µM
MIC [4]: ≥ 68.2 µM
MIC [5]: ≥ 68.2 µM
MIC [6]: ≥ 68.2 µM

SMILES: CC[C@H](C)[C@H](NC(=O)[C@H](CCCCN)NC(=O)[C@H](Cc1ccccc1)NC(=O)[C@@H](N)Cc1c[nH]c2ccccc12)C(=O)N[C@H](C(=O)N[C@@H](CCCCN)C(=O)N[C@@H](CCCCN)C(=O)O)[C@@H](C)CC [WFKIIKK]
MIC [7]: ≥ 1040 µM
MIC [8]: ≥ 130 µM
MIC [9]: ≥ 1040 µM
MIC [10]: > 1040 µM
MIC [11]: > 1040 µM
MIC [12]: ≥ 1040 µM
MIC [13]: 16.6 µM (≈ 16 µg/mL)
MIC [14]: ≥ 130 µM
MIC [15]: 16.6 µM (≈ 16 µg/mL)
MIC [16]: > 1040 µM
MIC [17]: ≥ 33.3 µM
MIC [18]: ≥ 65 µM
MIC [19]: ≥ 130 µM
MIC [20]: > 1040 µM
MIC [21]: 7.59 µM (≈ 7.3 µg/mL)

SMILES: NC(=O)[C@H](Cc1ccccc1)NC(=O)[C@H](Cc1ccccc1)NC(=O)[C@H](Cc1ccccc1)NC(=O)[C@H](Cc1ccccc1)NC(=O)[C@H](Cc1ccccc1)NC(=O)[C@H](Cc1ccccc1)NC(=O)[C@H](Cc1ccccc1)NC(=O)[C@@H](N)Cc1ccccc1 [FFFFFFFF]
MIC (Streptococcus sanguinis): 7.1 µM (≈ 8.48 µg/mL)
MIC (Staphylococcus aureus): 5.8 µM (≈ 6.92 µg/mL)

SMILES: CC[C@H](C)[C@H](NC(=O)CNC(=O)[C@H](CCSC)NC(=O)[C@H](CC(C)C)NC(=O)[C@H](CCCCN)NC(=O)[C@@H](N)CC(C)C)C(=O)N[C@H](C(=O)N[C@@H](CCCCN)C(=O)N[C@@H](CCCCN)C(=O)N[C@H](C(=O)N[C@@H](CC(C)C)C(=O)NCC(=O)N[C@@H](C)C(=O)N[C@@H](CC(C)C)C(N)=O)C(C)C)C(C)C [LKLMGIVKKVLGAL]
MIC [10]: 7 µM (≈ 10.4 µg/mL)
MIC [24]: 3 µM (≈ 4.45 µg/mL)
MIC [25]: ≥ 68 µM
MIC [11]: 7 µM (≈ 10.4 µg/mL)
MIC [26]: ≥ 34 µM
MIC [27]: 34 µM (≈ 50.4 µg/mL)
MIC [28]: 17 µM (≈ 25.2 µg/mL)
MIC [29]: 17 µM (≈ 25.2 µg/mL)

SMILES: CC(C)C[C@H](NC(=O)[C@H](Cc1cnc[nH]1)NC(=O)[C@@H](N)C(C)C)C(=O)N1CCC[C@H]1C(=O)N1CCC[C@H]1C(=O)O [VHLPP]
MIC [30]: ≥ 479 µM
MIC [31]: ≥ 479 µM
MIC [32]: ≥ 479 µM
MIC [33]: ≥ 479 µM

Results, then the compound that gave them:

MIC [22]: ≥ 100 µM
MIC [23]: ≥ 35.4 µM
SMILES: CC[C@H](C)[C@H](NC(=O)[C@H](CCCN=C(N)N)NC(=O)[C@H](CC(N)=O)NC(=O)[C@H](CC(C)C)NC(=O)[C@H](Cc1ccccc1)NC(=O)[C@H](CCCN=C(N)N)NC(=O)[C@H](Cc1ccccc1)NC(=O)[C@H](CCCN=C(N)N)NC(=O)[C@@H](NC(=O)[C@H](CC(C)C)NC(=O)[C@@H](NC(=O)[C@@H](N)C(C)C)[C@@H](C)CC)[C@@H](C)O)C(=O)N[C@H](C(=O)N[C@@H](CCC(=O)O)C(=O)N1CCC[C@H]1C(=O)N[C@@H](CC(C)C)C(=O)N[C@@H](CC(C)C)C(=O)N[C@@H](CCCCN)C(=O)N[C@@H](CCCCN)C(=O)N[C@@H](C)C(=O)O)C(C)C [VILTRFRFLNRIVEPLLKKA]

MIC [8]: 19.8 µM (≈ 55 µg/mL)
MIC [15]: 21.6 µM (≈ 60 µg/mL)
MIC [34]: 23.4 µM (≈ 65 µg/mL)
MIC [35]: 20.7 µM (≈ 57.5 µg/mL)
MIC [36]: 22.5 µM (≈ 62.5 µg/mL)
MIC (Candida krusei DSM 70079): 20.7 µM (≈ 57.5 µg/mL)
SMILES: CC[C@H](C)[C@H](NC(=O)[C@@H](NC(=O)[C@H](CCCCN)NC(=O)[C@H](CC(=O)O)NC(=O)[C@H](C)NC(=O)[C@H](CCC(N)=O)NC(=O)[C@H](CCCN=C(N)N)NC(=O)[C@@H](NC(=O)[C@H](CO)NC(=O)CNC(=O)[C@H](CCCN=C(N)N)NC(=O)[C@H](CCC(=O)O)NC(=O)[C@H](Cc1c[nH]c2ccccc12)NC(=O)[C@@H](NC(=O)[C@H](CS)NC(=O)[C@H](CC(C)C)NC(=O)[C@H](CCC(=O)O)NC(=O)[C@H](CCC(N)=O)NC(=O)[C@H](CCCCN)NC(=O)[C@H](CO)NC(=O)[C@@H](NC(=O)[C@H](CCCN=C(N)N)NC(=O)CN)[C@@H](C)O)[C@@H](C)O)C(C)C)[C@@H](C)O)C(=O)N[C@@H](C)C(=O)NCC(=O)O [GRTSKQELCTWERGSVRQADKTIAG]

MIC (Enterococcus faecalis): ≥ 46.8 µM
MIC [37]: ≥ 46.8 µM
MIC [26]: ≥ 46.8 µM
MIC [38]: 5.85 µM (≈ 16 µg/mL)
MIC (Escherichia coli O111:B4): 5.85 µM (≈ 16 µg/mL)
MIC [39]: ≥ 46.8 µM
MIC [40]: 23.4 µM (≈ 64 µg/mL)
MIC (Bacillus subtilis): ≥ 46.8 µM
SMILES: CC[C@H](C)[C@H](NC(=O)[C@H](C)NC(=O)[C@@H]1CCCN1C(=O)CNC(=O)[C@H](C)NC(=O)[C@@H](NC(=O)[C@H](CCCCN)NC(=O)[C@H](CC(C)C)NC(=O)CNC(=O)[C@H](CO)NC(=O)[C@H](CC(C)C)NC(=O)[C@@H](NC(=O)[C@H](CCCN=C(N)N)NC(=O)[C@H](CCCN=C(N)N)NC(=O)[C@H](Cc1c[nH]c2ccccc12)NC(=O)[C@H](Cc1c[nH]c2ccccc12)NC(=O)[C@H](CCCCN)NC(=O)[C@@H](N)CCCCN)C(C)C)[C@@H](C)O)C(=O)N[C@@H](CCC(N)=O)C(=O)N[C@@H](CO)C(=O)N[C@H](C(=O)N[C@@H](CC(C)C)C(=O)N[C@@H](CC(N)=O)C(=O)N[C@@H](CCCCN)C(=O)O)C(C)C [KKWWRRVLSGLKTAGPAIQSVLNK]
